Laboratory results reported in paper PMC11434796, “An Innovative Bio-Vehicle for Resveratrol and Tocopherol Based on Quinoa 11S Globulin—Nanocomplex Design and Characterization” (Pharmaceutics, 2024).

Biological target: T1, quinoa 11S globulin (11S; chenopodin)
T1 construct: gene 11S globulin A; native, from defatted quinoa seed flour (seed origin Peru); alkaline extraction, pH 4.5 precipitation, size-exclusion FPLC; acidic (30-35 kDa) and basic (17-20 kDa) subunits disulfide-linked, about 55 kDa; isoform mixture not resolved; docking used amaranth 3qac as homologue
Test: isothermal titration calorimetry
Assay type: binding, Chenopodium quinoa
Details: distilled water pH 9, 25 °C, n 0.91
Text: isothermal titration calorimetry on quinoa 11S globulin (11S; chenopodin)

## Oc1ccc(/C=C/c2cc(O)cc(O)c2)cc1 [RSV, 3,5,4′-trihydroxystilbene]
Protein 36.4 µM
  Kd: 48.2 ± 1 µM
Same titration as the Kd
  Ka (M^-1): (2.1 ± 0.3) × 10^4
